Data reported in US9180159B2, “Use of cell-permeable peptide inhibitors of the JNK signal transduction pathway for the treatment of chronic or non-chronic inflammatory digestive diseases” (Xigen Inflammation Ltd., priority 2008, dated 2015).

What was measured:
[1] = test system: JNKs from UV-light irradiated HeLa cells or IL-1 treated PTC cells; test: c-Jun phosphorylation by activated JNKs pulled down with GST-Jun from stressed cells; format: biochemical; conditions: 25 μM peptide
Method: The effects of the L-TAT or L-TAT-IB1(s) peptides as defined herein on JNKs activated by stressful stimuli were evaluated using GST-Jun to pull down JNKs from UV-light irradiated HeLa cells or IL-1 treated PTC cells. PTC cells were cultured as described above. HeLa cells were cultured in DMEM medium supplemented with 10% Fetal Calf Serum, 100 μg/mL Streptomycin, 100 units/ml Penicillin and 2 mM Glutamine. One hour prior to being used for cell extract preparation, PTC cells were activated with IL-1 as described above, whereas HeLa cells were activated by UV-light (20 J/m^2). Cell extracts were prepared from control, UV-light irradiated HeLa cells and IL-1 treated TC-3 cells by scraping the cell cultures in lysis buffer (20 mM Tris-acetate, 1 mM EGTA, 1% Triton X-100, 10 mM p-nitrophenyl-phosphate, 5 mM sodium pyrophosphate, 10 mMP-glycerophosphate, 1 mM dithiothreitol). Debris were removed by centrifugation for five minutes at 15,000 rpm in an SS-34 Beckman rotor. One-hundred μg extracts were incubated for one hour at room temperature with one μg GST-jun (amino acids 1-89) and 10 μL of glutathione-agarose beads (Sigma). Following four washes with the scraping buffer, the beads were resuspended in the same buffer supplemented with L-TAT or L-TAT-IB1(s) peptides (25 μM) for 20 minutes. […]

AP-1 DNA binding complex = test: Gel retardation assay with AP-1 probe, HeLa cell nuclear extracts; format: cell-based; conditions: in the presence of TNF-alpha, peptide added 30 minutes before
[2] = test system: JNK mediated activation of c-Jun in HeLa cells; test: GAL4-Jun luciferase reporter assay in HeLa cells with MKK4/MKK7 co-transfection; format: cell-based; conditions: 1 μM peptide, 16 hours
Source text: To determine whether the cell-permeable peptides as defined herein could block JNK signaling in vivo, we used a heterologous GAL4 system. HeLa cells, cultured as described above, were co-transfected with the 5×GAL-LUC reporter vector together with the GAL-Jun expression construct (Stratagene) comprising the activation domain of c-Jun (amino acids 1-89) linked to the GAL4 DNA-binding domain. Activation of JNK was achieved by the co-transfection of vectors expressing the directly upstream kinases MKK4 and MKK7 (see Whitmarsh et al, Science 285: 1573 (1999)). Briefly, 3×10^5 cells were transfected with the plasmids in 3.5-cm dishes using DOTAP (Boehringer Mannheim) following instructions from the manufacturer. For experiments involving GAL-Jun, 20 ng of the plasmid was transfected with 1 μg of the reporter plasmid pFR-Luc (Stratagene) and 0.5 μg of either MKK4 or MKK7 expressing plasmids. Three hours following transfection, cell media were changed and TAT and TAT-IB1(s) peptides (1 μM) were added. The luciferase activities were measured 16 hours later using the “Dual Reporter System” from Promega after normalization to protein content. […] Because HeLa cells express JNK1 and JNK2 isoforms but not JNK3, we transfected cells with JNK3.

[3] = test system: recombinant JNK1, JNK2 and JNK3; test: Solid phase kinase assay, phosphorylation of c-Jun, ATF2 and Elk1 by recombinant JNKs; format: biochemical
Method: (§1) The effects of the peptides on JNKs-mediated phosphorylation of their target transcription factors were investigated in vitro. Recombinant and non activated JNK1, JNK2 and JNK3 were produced using a TRANSCRIPTION AND TRANSLATION rabbit reticulocyte lysate kit (Promega) and used in solid phase kinase assays with c-Jun, ATF2 and Elk1, either alone or fused to glutathione-S-transferase (GST), as substrates. Dose response studies were performed wherein L-TAT or L-TAT-IB1(s) peptides (0-25 μM) were mixed with the recombinant JNK1, JNK2, or JNK3 kinases in reaction buffer (20 mM Tris-acetate, 1 mM EGTA, 10 mM p-nitrophenyl-phosphate (pNPP), 5 mM sodium pyrophosphate, 10 mM p-glycerophosphate, 1 mM dithiothreitol) for 20 minutes. The kinase reactions were then initiated by the addition of 10 mM MgCl2 and 5 pCi ^33P-dATP and 1 μg of either GST-Jun (aa 1-89), GST-AFT2 (aa 1-96) or GST-ELK1 (aa 307-428). GST-fusion proteins were purchased from Stratagene (La Jolla, Calif.).
(§2) Ten μL of glutathione-agarose beads were also added to the mixture. Reaction products were then separated by SDS-PAGE on a denaturing 10% polyacrylamide gel. Gels were dried and subsequently exposed to X-ray films (Kodak). […] The ability of D-TAT, D-TAT-IB1(s) and L-TAT-IB1(s) peptides (0-250 μM dosage study) to inhibit GST-Jun (aa 1-73) phosphorylation by recombinant JNK1, JNK2, and JNK3 by were analyzed as described above. Overall, D-TAT-IB1(s) peptide decreased JNK-mediated phosphorylation of c-Jun, but at levels approximately 10-20 fold less efficiently than L-TAT-IB1(s).

JNK3 = target: T1, JNK3 (Homo sapiens, UniProt P53779); test: Solid phase kinase assay, JNK3 phosphorylation of Elk1; format: biochemical; conditions: dose response 0-25 μM
T1 construct: host or cells: cell-free: rabbit reticulocyte lysate, in vitro transcription and translation
T1 sequence (P53779 whole entry, species assumed): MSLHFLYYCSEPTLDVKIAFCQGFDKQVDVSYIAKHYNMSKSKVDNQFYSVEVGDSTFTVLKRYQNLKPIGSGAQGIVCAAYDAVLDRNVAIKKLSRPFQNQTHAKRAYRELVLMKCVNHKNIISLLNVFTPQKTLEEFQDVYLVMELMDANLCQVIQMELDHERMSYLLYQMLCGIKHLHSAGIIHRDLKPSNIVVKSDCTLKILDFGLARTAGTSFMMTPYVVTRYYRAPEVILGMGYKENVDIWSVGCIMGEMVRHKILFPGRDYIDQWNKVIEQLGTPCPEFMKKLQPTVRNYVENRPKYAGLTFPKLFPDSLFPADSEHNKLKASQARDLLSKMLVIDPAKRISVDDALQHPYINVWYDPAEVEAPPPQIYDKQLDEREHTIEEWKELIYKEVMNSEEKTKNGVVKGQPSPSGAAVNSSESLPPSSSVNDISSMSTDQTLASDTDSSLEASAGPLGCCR
Method: as §1
as §2, with “Overall, D-TAT-IB1(s) peptide decreased JNK-mediated phosphorylation of c-Jun, but at levels approximately 10-20 fold less efficiently than L-TAT-IB1(s).” left out

TC-3 cell cultures = test: Cellular import and intracellular persistence of fluorescein-labeled peptides in TC-3 cells; format: cell-based; conditions: 1 μM
Method: The ability of the L- and D-enantiomeric forms of TAT and TAT-IB1(s) peptides (“TAT-IB peptides”) to enter cells was evaluated. L-TAT, D-TAT, L-TAT-IB1(s), and D-TAT-IB1(s) peptides [SEQ ID NOs: 5, 6, 9 and 12, respectively] were labeled by N-terminal addition of a glycine residue conjugated to fluorescein. Labeled peptides (1 μM) were added to TC-3 cell cultures, which were maintained as described in Example 3. At predetermined times cells were washed with PBS and fixed for five minutes in ice-cold methanol-acetone (1:1) before being examined under a fluorescence microscope. Fluorescein-labeled BSA (1 μM, 12 moles/mole BSA) was used as a control.
Little to no signal was present at 48 hours.

TC-3 cells = test: IL-1 induced pancreatic beta-cell death in TC-3 cells treated with peptides; format: cell-based; conditions: one single addition 1 μM, IL-1 10 ng/ml every two days
Method: Inhibition of IL-1 induced pancreatic beta-cell death by the D-TAT-IB1(s) peptide was analyzed. TC-3 cells were incubated as described above for 30 minutes with one single addition of the indicated peptides (1, μM), then IL-1 (10 ng/ml) was added.
Apoptotic cells were then counted after two days of incubation with IL-1 by use of Propidium Iodide and Hoechst 33342 nuclear staining. A minimum of 1,000 cells were counted for each experiment.
Long term inhibition of IL-1P induced cell-death by the D-TAT-IB1 peptide was also analyzed. TC-3 cells were incubated as above for 30 minutes with one single addition of the indicated peptides (1 μM), then IL-1 (10 ng/ml) was added, followed by addition of the cytokine every two days. Apoptotic cells were then counted after 15 days of incubation with IL-1 by use of propidium iodide and Hoechst 33342 nuclear staining. […] A minimum of 1.000 cells were counted for each experiment.

[4] = test system: Insulin producing TC-3 cells; conditions: previously shown (Ammendrup et al.); cited from earlier work

NH2-GRKKRRQRRRPPRPKRPTTLNLFPQVPRSQD-COOH (H-GRKKRRQRRRPPRPKRPTTLNLFPQVPRSQD-OH) [L-TAT-IB1(s)]
prevention of phosphorylation of c-Jun by activated JNKs [1]: efficiently prevented phosphorylation of c-Jun
formation of the AP-1 DNA binding complex (AP-1 DNA binding complex): decrease the formation of the AP-1 DNA binding complex
activation of c-Jun following MKK4 and MKK7 mediated activation of JNK (luciferase) [2]: blocked activation of c-Jun
inhibiting JNK family phosphorylation of their target transcription factors, overall [3]: superior effects
peptide dose at which nearly complete inhibition of c-Jun, ATF2 and Elk1 phosphorylation by JNKs was observed (as low as) ([3]; dose response 0-25 μM): 2.5 µM
inhibition of JNK3 phosphorylation of Elk1 (JNK3): absence of TAT-IB(s) inhibition
entry into cells (TC-3 cell cultures): efficiently and rapidly (less than five minutes) entered cells
long term protection from IL-1 induced cell-death, 15 days (TC-3 cells): not

B1: JBD1-280: the GFP vector linked to the entire JBD (aa 1-280) (protein, UniProt Q9UQF2 1-280, looked up, fragment)
chain: MAERESGGLGGGAASPPAASPFLGLHIASPPNFRLTHDISLEEFEDEDLSEITDECGISLQCKDTLSLRPPRAGLLSAGGGGAGSRLQAEMLQMDLIDATGDTPGAEDDEEDDDEERAARRPGAGPPKAESGQEPASRGQGQSQGQSQGPGSGDTYRPKRPTTLNLFPQVPRSQDTLNNNSLGKKHSWQDRVSRSSSPLKTGEQTPPHEHICLSDELPPQSGPAPTTDRGTSTDSPCRRSTATQMAPPGGPPAAPPGGRGHSHRDRIHYQADVRLEATEE
modifications: fused to GFP
block of IL1 induced pancreatic beta-cell apoptosis by transfection [4]: blocked
